Assay results reported in patent US20240150321A1, “PYRAZOLYLSULFONAMIDE COMPOUNDS AND THEIR USE IN THERAPY” (HOTSPOT THERAPEUTICS, INC., priority 2022, published 2024).

What was measured:
Avi-tagged FL MALT-1 = Avi-tagged FL MALT-1 (Homo sapiens (Human), UniProt Q9UDY8); test: MALT-1 Fluorogenic Peptide Cleavage Assay (MALT1 inhibition assay); assay type: biochemical; conditions: Ac-LRSR-AMC peptide substrate, 30 min pre-incubation, 90 min reaction at room temperature
Outline: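 Cleavage of Ac-LRSR-AMC, read as fluorescence at 342/441 nm after 90 min at room temperature, with substrate working stocks of 50 μM (Km) or 280 μM (10×Km). Enzyme, Avi-tagged full-length MALT-1 (40 nM stock), was first pre-incubated 30 min with compound in citrate/HEPES pH 6.89 buffer with TCEP, EDTA, CHAPS and 2% DMSO; IC50 fitted from normalised % inhibition.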

[1] = tested on: NF-kB reporter in Jurkat cells; test: NF-kB reporter assay in Jurkat cells stimulated with aCD3/aCD28/PMA; assay type: cell-based; conditions: Homo sapiens; Jurkat cells, 1 hr compound pre-incubation, aCD3/aCD28/PMA stimulation 4 hr, One-Glo readout; read-out: NF-kB Reporter Assay IC50
Outline: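 Luminescence (One-Glo) from the NF-kB reporter yielded IC50 values. Stimulation lasted 4 h at 37° C with aCD3, aCD28 and PMA (final 5, 5 and 0.03 […]), after 1 h compound pre-exposure of 25,000 Jurkat cells per well in serum-free RPMI.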

Sequence of Avi-tagged FL MALT-1 (Q9UDY8 whole entry): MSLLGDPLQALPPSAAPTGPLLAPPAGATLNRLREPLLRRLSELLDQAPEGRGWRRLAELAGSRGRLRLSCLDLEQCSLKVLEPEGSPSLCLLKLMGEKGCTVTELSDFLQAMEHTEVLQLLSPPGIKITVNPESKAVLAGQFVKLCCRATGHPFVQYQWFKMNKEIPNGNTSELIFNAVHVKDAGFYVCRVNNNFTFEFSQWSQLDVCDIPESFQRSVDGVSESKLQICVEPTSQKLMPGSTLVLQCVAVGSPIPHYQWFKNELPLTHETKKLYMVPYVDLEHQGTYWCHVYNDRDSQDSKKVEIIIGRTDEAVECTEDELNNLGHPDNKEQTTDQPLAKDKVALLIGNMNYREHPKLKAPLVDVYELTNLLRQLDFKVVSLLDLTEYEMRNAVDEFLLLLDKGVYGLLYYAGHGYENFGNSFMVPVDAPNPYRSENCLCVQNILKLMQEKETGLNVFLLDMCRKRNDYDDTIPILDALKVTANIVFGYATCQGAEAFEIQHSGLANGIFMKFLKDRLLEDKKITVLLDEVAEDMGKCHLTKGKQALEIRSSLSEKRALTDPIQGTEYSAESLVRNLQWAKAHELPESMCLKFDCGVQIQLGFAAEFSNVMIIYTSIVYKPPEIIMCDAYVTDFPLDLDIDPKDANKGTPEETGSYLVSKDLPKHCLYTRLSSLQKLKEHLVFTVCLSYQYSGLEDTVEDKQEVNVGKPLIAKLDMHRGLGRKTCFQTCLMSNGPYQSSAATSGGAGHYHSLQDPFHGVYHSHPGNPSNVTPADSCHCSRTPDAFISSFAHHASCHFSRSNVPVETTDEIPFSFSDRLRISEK

IC50 (Avi-tagged FL MALT-1)	IC50 [1]	Compound
≤ 400 nM	< 400 nM	CCc1ccc2cnn(C)c2c1NS(=O)(=O)c1cnn(-c2cc(Cl)ccn2)c1 [Compound I-36, 1-(4-Chloropyridin-2-yl)-N-(6-Ethyl-1-Methyl-1H-indazol-7-yl)-1H-Pyrazole-4-Sulfonamide]
≤ 400 nM	< 400 nM	CCc1ccc2cnn(C)c2c1NS(=O)(=O)c1cnn(-c2ccnc(Cl)c2)c1 [Compound I-37, 1-(2-Chloropyridin-4-yl)-N-(6-Ethyl-1-Methyl-1H-Indazol-7-yl)-1H-Pyrazole-4-Sulfonamide]
≤ 400 nM	< 400 nM	CCCc1ccc2cnn(C)c2c1NS(=O)(=O)c1cnn(-c2ccnc(C(F)(F)F)c2)c1 [Compound I-38, N-(1-Methyl-6-Propyl-1H-Indazol-7-yl)-1-(2-(Trifluoromethyl) Pyridin-4-yl)-1H-Pyrazole-4-Sulfonamide]
≤ 400 nM	< 400 nM	CCc1ccc2[nH]nc(C)c2c1NS(=O)(=O)c1cnn(-c2ccnc(C(F)(F)F)c2)c1 [Compound I-39, N-(5-Ethyl-3-Methyl-1H-Indazol-4-yl)-1-(2-(Trifluoromethyl) Pyridin-4-yl)-1H-Pyrazole-4-Sulfonamide]
≤ 400 nM	400 to 1000 nM	CCc1ccc2c(c(C)nn2C)c1NS(=O)(=O)c1cnn(-c2ccnc(C(F)(F)F)c2)c1 [Compound I-40, N-(5-ethyl-1,3-dimethyl-1H-Indazol-4-yl)-1-(2-(Trifluoromethyl)Pyridin-4-yl)-1H-Pyrazole-4-Sulfonamide]
≤ 400 nM	< 400 nM	CCc1ccc2cnn(C)c2c1NS(=O)(=O)c1cnn(-c2ccnc(N(C)C)c2)c1 [Compound I-41, 1-(2-(Dimethylamino)Pyridin-4-yl)-N-(6-ethyl-1-Methyl-1H-Indazol-7-yl)-1H-Pyrazole-4-Sulfonamide]
400 to 1000 nM	400 to 1000 nM	CCc1ccc2cnn(C)c2c1NS(=O)(=O)c1cnn(-c2ccc(OC)cn2)c1 [Compound I-42, N-(6-Ethyl-1-Methyl-1H-Indazol-7-yl)-1-(5-Methoxypyridin-2-yl)-1H-Pyrazole-4-Sulfonamide]
> 2500 nM	> 2500 nM	CCc1ccc2cnn(C)c2c1NS(=O)(=O)c1cnn(-c2cc(OC(F)(F)F)ccn2)c1 [Compound I-43, N-(6-Ethyl-1-Methyl-1H-Indazol-7-yl)-1-(4-(Trifluoromethoxy) Pyridin-2-yl)-1H-Pyrazole-4-Sulfonamide]
> 2500 nM	> 2500 nM	CCc1ccc2cnn(C)c2c1NS(=O)(=O)c1cnn(-c2cc(OC)ccn2)c1 [Compound I-44, N-(6-Ethyl-1-Methyl-1H-Indazol-7-yl)-1-(4-Methoxypyridin-2-yl)-1H-Pyrazole-4-Sulfonamide]
> 2500 nM	< 400 nM	Cc1n[nH]c2cccc(NS(=O)(=O)c3cnn(-c4ccc(C(F)(F)F)cn4)c3)c12 [Compound I-45, N-(3-Methyl-1H-Indazol-4-yl)-1-(5-(Trifluoromethyl)Pyridin-2-yl)-1H-Pyrazole-4-Sulfonamide]
> 2500 nM	> 2500 nM	Cn1cc2ccc(Cl)c(NS(=O)(=O)c3cnn(-c4ccnc(C(F)(F)F)c4)c3)c2n1 [Compound I-47, N-(6-Chloro-2-Methyl-2H-Indazol-7-yl)-1-(2-(Trifluoromethyl) Pyridin-4-yl)-1H-Pyrazole-4-Sulfonamide]
≤ 400 nM	> 2500 nM	CCc1ccc2cn(C)nc2c1NS(=O)(=O)c1cnn(-c2ccnc(C(F)(F)F)c2)c1 [Compound I-48, N-(6-Ethyl-2-Methyl-2H-Indazol-7-yl)-1-(2-(Trifluoromethyl) Pyridin-4-yl)-1H-Pyrazole-4-Sulfonamide]
> 2500 nM	> 2500 nM	Cc1cc(NS(=O)(=O)c2cnn(-c3ccnc(C(F)(F)F)c3)c2)c2c(cnn2C)c1 [Compound I-49, N-(1,5-Dimethyl-1H-Indazol-7-yl)-1-(2-(Trifluoromethyl) Pyridin-4-yl)-1H-Pyrazole-4-Sulfonamide]
400 to 1000 nM	> 2500 nM	COc1ccc2cn(C)nc2c1NS(=O)(=O)c1cnn(-c2ccnc(C(F)(F)F)c2)c1 [Compound I-50, N-(6-Methoxy-2-Methyl-2H-Indazol-7-yl)-1-(2-(Trifluoromethyl)Pyridin-4-yl)-1H-Pyrazole-4-Sulfonamide]
> 2500 nM	> 2500 nM	Cc1n[nH]c2cccc(NS(=O)(=O)c3cnn(-c4ccnc(C(F)(F)F)c4)c3)c12 [Compound I-51, N-(3-Methyl-1H-Indazol-4-yl)-1-(2-(Trifluoromethyl)Pyridin-4-yl)-1H-Pyrazole-4-Sulfonamide]
> 2500 nM	1000 to 2500 nM	COc1ccc2nnn(C)c2c1NS(=O)(=O)c1cnn(-c2ccnc(C(F)(F)F)c2)c1 [Compound I-52]

IC50 (Avi-tagged FL MALT-1)	IC50 [1]	Compound
≤ 400 nM	< 400 nM	Cn1ncc2ccc(C3CC3)c(NS(=O)(=O)c3cnn(-c4cc(C(F)(F)F)ncn4)c3)c21 [Compound I-53, N-(6-Cyclopropyl-1-Methyl-1H-Indazol-7-yl)-1-(6-(Trifluoromethyl)Pyrimidin-4-yl)-1H-Pyrazole-4-Sulfonamide]
≤ 400 nM	< 400 nM	COc1ccc2cnn(C)c2c1NS(=O)(=O)c1cnn(-c2cc(Cl)ccn2)c1 [Compound I-54]
≤ 400 nM	1000 to 2500 nM	Cn1ncc2ccc(OC3CC3)c(NS(=O)(=O)c3cnn(-c4ccnc(C(F)(F)F)c4)c3)c21 [Compound I-55, N-(6-Cyclopropoxy-1-Methyl-1H-Indazol-7-yl)-1-(2-(Trifluoromethyl)Pyridin-4-yl)-1H-Pyrazole-4-Sulfonamide]
≤ 400 nM	< 400 nM	CCc1ccc2cnn(C)c2c1NS(=O)(=O)c1cnn(-c2cc(C3CC3)ccn2)c1 [Compound I-56, 1-(4-Cyclopropylpyridin-2-yl)-N-(6-Ethyl-1-Methyl-1H-Indazol-7-yl)-1H-Pyrazole-4-Sulfonamide]
≤ 400 nM	< 400 nM	COc1ccc2cnn(C)c2c1NS(=O)(=O)c1cnn(-c2cc(C3CC3)ccn2)c1 [Compound I-57, 1-(4-Cyclopropylpyridin-2-yl)-N-(6-Methoxy-1-Methyl-1H-Indazol-7-yl)-1H-Pyrazole-4-Sulfonamide]
> 2500 nM	> 2500 nM	COc1cc(NS(=O)(=O)c2cnn(-c3ccnc(C(F)(F)F)c3)c2)c2c(cnn2C)c1 [Compound I-58, N-(5-Methoxy-1-Methyl-1H-Indazol-7-yl)-1-(2-(Trifluoromethyl)Pyridin-4-yl)-1H-Pyrazole-4-Sulfonamide]
≤ 400 nM	400 to 1000 nM	Cc1ccc2cnn(C)c2c1NS(=O)(=O)c1cnn(-c2ccnc(C(F)(F)F)c2)c1 [Compound I-59, N-(1,6-Dimethyl-1H-Indazol-7-yl)-1-(2-(Trifluoromethyl)Pyridin-4-yl)-1H-Pyrazole-4-Sulfonamide]
≤ 400 nM	< 400 nM	Cc1ccc2cnn(C)c2c1NS(=O)(=O)c1cnn(-c2cc(C(F)(F)F)ccn2)c1 [Compound I-60, N-(1,6-Dimethyl-1H-Indazol-7-yl)-1-(4-(Trifluoromethyl) Pyridin-2-yl)-1H-Pyrazole-4-Sulfonamide]
1000 to 2500 nM	1000 to 2500 nM	CCc1ccc2cnn(C)c2c1NS(=O)(=O)c1cnn(-c2ccnc(OC(F)(F)F)c2)c1 [Compound I-61, N-(6-Ethyl-1-Methyl-1H-Indazol-7-yl)-1-(2-(Trifluoromethoxy) Pyridin-4-yl)-1H-Pyrazole-4-Sulfonamide]
≤ 400 nM	400 to 1000 nM	CCc1ccc2[nH]nc(C)c2c1N(C)S(=O)(=O)c1cnn(-c2ccnc(C(F)(F)F)c2)c1 [Compound I-62, N-(5-Ethyl-3-Methyl-1H-Indazol-4-yl)-N-Methyl-1-(2-(Trifluoromethyl)Pyridin-4-yl)-1H-Pyrazole-4-Sulfonamide]
> 2500 nM	< 400 nM	Cc1ccnc(-n2cc(S(=O)(=O)Nc3cccc4[nH]nc(C)c34)cn2)c1 [Compound I-63, N-(3-Methyl-1H-Indazol-4-yl)-1-(4-Methylpyridin-2-yl)-1H-Pyrazole-4-Sulfonamide]
1000 to 2500 nM	> 2500 nM	Cc1n[nH]c2cccc(N(C)S(=O)(=O)c3cnn(-c4ccnc(C(F)(F)F)c4)c3)c12 [Compound I-64, N-Methyl-N-(3-Methyl-1H-Indazol-4-yl)-1-(2-(Trifluoromethyl)Pyridin-4-yl)-1H-Pyrazole-4-Sulfonamide]
400 to 1000 nM	400 to 1000 nM	Cc1n[nH]c2cccc(N(C)S(=O)(=O)c3cnn(-c4cc(C(F)(F)F)ccn4)c3)c12 [Compound I-65, N-Methyl-N-(3-Methyl-1H-Indazol-4-yl)-1-(4-(Trifluoromethyl)Pyridin-2-yl)-1H-Pyrazole-4-Sulfonamide]
> 2500 nM	> 2500 nM	Cc1ccnc(-n2cc(S(=O)(=O)N(C)c3cccc4[nH]nc(C)c34)cn2)c1 [Compound I-66, N-Methyl-N-(3-Methyl-1H-Indazol-4-yl)-1-(4-Methylpyridin-2-yl)-1H-Pyrazole-4-Sulfonamide]
≤ 400 nM	< 400 nM	Cc1ccc2[nH]nc(C)c2c1NS(=O)(=O)c1cnn(-c2cc(C(F)(F)F)ccn2)c1 [Compound I-67]
≤ 400 nM	< 400 nM	C=C(CO)c1ccnc(-n2cc(S(=O)(=O)Nc3c(OC)ccc4cnn(C)c34)cn2)c1 [Compound I-68, 1-(4-(3-Hydroxyprop-1-EN-2-yl)Pyridin-2-yl)-N-(6-Methoxy-1-Methyl-1H-Indazol-7-yl)-1H-Pyrazole-4-Sulfonamide]
